Measurements taken from patent publication US11766430B2, “Methods of using a phenoxypropylamine compound to treat pain” (Minerva Neurosciences, Inc., priority 2018, dated 2023).
Where “and” joins values, the source holds several entries; their conditions need not be identical. Identical values can stand only once.

Tested on: carrageenan-induced mechanical hyperalgesia in rats
Experiment: Carrageenan-induced mechanical hyperalgesia, paw pressure test, time course to 240 min (Example 2)
Assay type: in vivo, male Sprague-Dawley rats
Conditions: 3 mg/kg s.c.
Procedure: In this model, inflammation is induced by intraplantar injection of carrageenan (2%) into the right hindpaw of the rat. Three hours later, reaction thresholds are measured using the paw pressure test. Pressure is gradually applied to both hind paws (inflamed and control) of the rat, and reaction thresholds are determined as the pressure (g) required to elicit paw withdrawal or vocalization. Morphine (3 mg/kg, s.c.) was used as a positive control.
The experiments in this study used fifty (50) male Sprague-Dawley rats (SPF status, Janvier, France), each weighing 204-260 grams. The rats were housed in a temperature (20-24° C.) and relative humidity (45%-65%) controlled room and acclimated to an artificial day/night cycle of 12 hours light (6.30 a.m. to 6.30 p.m.)/12 hours darkness. Rats had free access to sterilized tap water and were fed ad libitum with pelleted complete diet (reference A04, S.A.F.E.). Rats were housed 4 per cage (cages Type E) and were acclimated for a period of at least 5 days before any testing. Each rat was identified by tail markings. Based on the SPF status of the animal facilities, there is no reason to expect that contaminants were present in the food, water or bedding, at levels capable of interfering with the results of the tests.
Pain Test: Static mechanical hyperalgesia was assessed using the Paw Pressure test or Randall & Selitto test (Randall, L. O. and Selitto, J. J., A method for measurement of analgesic activity on inflamed tissue, Arch Int Pharmacodyn, 1957(111): 409-419). This test requires the application of an increasing pressure on the hind paws between a flat surface and a blunt pointer. This test is usually used with animals with one hind paw inflamed by an injection or injured by ligation, and one normal hind paw, to evaluate drugs for analgesic action. The apparatus exerts a steadily increasing force and reaction threshold is determined as the pressure (g) required to elicit paw withdrawal and/or vocalization. In the experiment, animals were gently handled by the experimenter and static mechanical hyperalgesia was assessed. Each reaction threshold measurement was done for both hind paws.
Five (5) experimental groups of 10 rats each were used. Each group was first injected with of 100 μL of a 2% carrageenan suspension in the plantar aspect of the right hindpaw. Three hours after carrageenan injection, paw withdrawal threshold was measured using the paw pressure test (Baseline). The 5 groups were then administered the following: • Group 1: vehicle (0.5% HPMC), i.p., solution (negative control); • Group 2: MIN-117 (0.01 mg/kg, i.p.) in 0.5% HPMC, suspension; • Group 3: MIN-117 (0.1 mg/kg, i.p.) in 0.5% HPMC, suspension; • Group 4: MIN-117 (1 mg/kg, i.p.) in 0.5% HPMC, suspension; and • Group 5: morphine (3 mg/kg, s.c.) in 0.9% NaCl, solution (positive control).
After administering vehicle, MIN-117, or morphine, the antihyperalgesic effect of the compounds was evaluated using the paw pressure test at 0 min. (T0), 30 min., 60 min., 120 min., and 240 min.
Vehicle and MIN-117 were administered intraperitoneally at 10 mL/kg. Morphine was subcutaneously administered at 5 mL/kg. Dosing and testing were performed in a random order by a blinded experimenter except for the morphine-treated group. Doses were expressed in terms of free active substance. Rats were sacrificed at the end of the experiment by CO2 inhalation pending subsequent removal by a certified company.
Results were assessed as: the paw withdrawal threshold (mean±s.e.m.) in grams of contact pressure for each group, calculated from individual paw withdrawal thresholds; the percentage of variation of the paw withdrawal threshold calculated from the mean value of the vehicle-treated group; and/or the percentage of activity. To determine a statistical effect of the test substance and the reference substance, data were analyzed by a non-parametrical test. The significance level was p<0.05.

[1] = 120 min, listed as Morphine HCl
[2] = 240 min, listed as Morphine HCl
[3] = Baseline, listed as Morphine HCl
[4] = T0 (baseline before dosing), listed as Morphine HCl
[5] = T0 + 30 min, listed as Morphine HCl

Question: How did the “Time of maximum effect on injured paw withdrawal threshold after treatment” value turn out when `CN1CC[C@]23c4c5ccc(O)c4O[C@H]2[C@@H](O)C=C[C@H]3[C@H]1C5` [Morphine, reference compound] was run?
Answer: Its value is 30 min.

Question: What about the “Nociceptive threshold, control paw, individual rats” value (30 min, listed as Morphine HCl) of the same compound?
Answer: The value was 680 g (9×) and 520 g.

Question: And the “Nociceptive threshold, injured paw, individual rats” value (30 min, listed as Morphine HCl)?
Answer: Its value is 600 g and 620 g (2×) and 560 g and 640 g and 680 g (3×) and 440 g and 400 g.

Question: What about the “Nociceptive threshold, control paw, individual rats” value (60 min, listed as Morphine HCl) of the same compound?
Answer: Its value is 580 g and 680 g (8×) and 520 g.

Question: What about the “Nociceptive threshold, injured paw, individual rats” value (60 min, listed as Morphine HCl) of the same compound?
Answer: The value was 440 g and 600 g (3×) and 460 g and 620 g (2×) and 680 g and 480 g and 380 g.

Question: What about the “Nociceptive threshold, control paw, individual rats” value [1] of the same compound?
Answer: Its value is 480 g and 320 g and 440 g (3×) and 500 g and 380 g and 520 g and 460 g and 360 g.

Question: And the “Nociceptive threshold, injured paw, individual rats” value [1]?
Answer: The value was 280 g (3×) and 260 g and 400 g and 320 g (2×) and 440 g and 220 g and 200 g.

Question: And the “Nociceptive threshold, control paw, individual rats” value [2]?
Answer: Its value is 320 g (4×) and 360 g (4×) and 400 g and 420 g.

Question: And the “Nociceptive threshold, injured paw, individual rats” value [2]?
Answer: The value was 160 g (3×) and 180 g (3×) and 200 g (2×) and 240 g and 140 g.

Question: And the “Nociceptive threshold, control paw, individual rats” value [3]?
Answer: The value was 320 g (2×) and 440 g and 420 g (3×) and 360 g (2×) and 460 g and 380 g.

Question: And the “Nociceptive threshold, injured paw, individual rats” value [3]?
Answer: Its value is 160 g and 200 g (5×) and 220 g and 180 g (3×).

Question: And the “% activity, injured paw” value (T0 (baseline before dosing))?
Answer: Its value is 2%.

Question: And the “% variation vs control paw, injured paw” value (T0 (baseline before dosing))?
Answer: Its value is −51%.

Question: And the “% variation vs vehicle-treated group, injured paw” value (T0 (baseline before dosing))?
Answer: The value was 5%.

Question: What about the “Nociceptive threshold, control paw (mean ± s.e.m.)” value (T0 (baseline before dosing)) of the same compound?
Answer: Its value is 390.0 ± 15.6 g.

Question: What about the “Nociceptive threshold, injured paw (mean ± s.e.m.)” value (T0 (baseline before dosing)) of the same compound?
Answer: Its value is 192 ± 5.3 g.

Question: What about the “Nociceptive threshold, control paw (mean ± s.e.m.)” value [4] of the same compound?
Answer: The value was 390. g.

Question: What about the “Nociceptive threshold, injured paw (mean ± s.e.m.)” value [4] of the same compound?
Answer: Its value is 192 g.

Question: What about the “% activity, injured paw” value (T0 + 30 min) of the same compound?
Answer: The value was 230%.

Question: What about the “% variation vs control paw, injured paw” value (T0 + 30 min) of the same compound?
Answer: Its value is −11%.

Question: And the “% variation vs pre-drug threshold, injured paw” value (T0 + 30 min)?
Answer: Its value is 208%.

Question: What about the “Nociceptive threshold, control paw (mean ± s.e.m.)” value (T0 + 30 min) of the same compound?
Answer: The value was 664 g.

Question: And the “Nociceptive threshold, injured paw (mean ± s.e.m.)” value (T0 + 30 min)?
Answer: Its value is 592 ± 31.3 g.

Question: What about the “% variation vs vehicle-treated group, injured paw” value [5] of the same compound?
Answer: The value was 233%.

Question: What about the “Nociceptive threshold, injured paw (mean ± s.e.m.)” value [5] of the same compound?
Answer: Its value is 592 g.

Question: And the “% activity, injured paw” value (T0 + 60 min)?
Answer: The value was 214%.

Question: What about the “% variation vs control paw, injured paw” value (T0 + 60 min) of the same compound?
Answer: Its value is −16%.

Question: What about the “% variation vs pre-drug threshold, injured paw” value (T0 + 60 min) of the same compound?
Answer: Its value is 185%.

Question: What about the “% variation vs vehicle-treated group, injured paw” value (T0 + 60 min) of the same compound?
Answer: The value was 191%.

Question: And the “Nociceptive threshold, control paw (mean ± s.e.m.)” value (T0 + 60 min)?
Answer: The value was 654 g.

Question: What about the “Nociceptive threshold, injured paw (mean ± s.e.m.)” value (T0 + 60 min) of the same compound?
Answer: Its value is 548 ± 31.3 g.

Question: What about the “Nociceptive threshold, injured paw (mean ± s.e.m.)” value (T0 + 60 min, listed as Morphine HCl) of the same compound?
Answer: The value was 548 g.

Question: And the “% activity, injured paw” value (T0 + 120 min)?
Answer: The value was 72%.

Question: What about the “% variation vs control paw, injured paw” value (T0 + 120 min) of the same compound?
Answer: Its value is −31%.

Question: And the “% variation vs pre-drug threshold, injured paw” value (T0 + 120 min)?
Answer: Its value is 56%.

Question: What about the “% variation vs vehicle-treated group, injured paw” value (T0 + 120 min) of the same compound?
Answer: The value was 61%.

Question: What about the “Nociceptive threshold, control paw (mean ± s.e.m.)” value (T0 + 120 min) of the same compound?
Answer: The value was 434 g.

Question: What about the “Nociceptive threshold, injured paw (mean ± s.e.m.)” value (T0 + 120 min) of the same compound?
Answer: The value was 300 ± 23.5 g.

Question: And the “Nociceptive threshold, injured paw (mean ± s.e.m.)” value (T0 + 120 min, listed as Morphine HCl)?
Answer: The value was 300 g.

Question: And the “% activity, injured paw” value (T0 + 240 min)?
Answer: The value was −4%.

Question: What about the “% variation vs control paw, injured paw” value (T0 + 240 min) of the same compound?
Answer: Its value is −49%.

Question: And the “% variation vs pre-drug threshold, injured paw” value (T0 + 240 min)?
Answer: The value was −6%.

Question: And the “% variation vs vehicle-treated group, injured paw” value (T0 + 240 min)?
Answer: Its value is −3%.

Question: What about the “Nociceptive threshold, control paw (mean ± s.e.m.)” value (T0 + 240 min) of the same compound?
Answer: The value was 354 g.

Question: And the “Nociceptive threshold, injured paw (mean ± s.e.m.)” value (T0 + 240 min)?
Answer: Its value is 180 ± 8.9 g.

Question: And the “Nociceptive threshold, injured paw (mean ± s.e.m.)” value (T0 + 240 min, listed as Morphine HCl)?
Answer: The value was 180 g.

Question: And the “Effect on injured paw withdrawal threshold vs vehicle-treated group (in words)” value (from 30 min. to 120 min. after administration)?
Answer: The value was “marked and significant increase”.
